Paper PMC10730845, “Endoxifen downregulates AKT phosphorylation through protein kinase C beta 1 inhibition in ERα+ breast cancer” (NPJ Breast Cancer, 2023)

Key:
[1] = tested on: AKT phosphorylation (pAKT^Ser473, pAKT^Thr308, p-AKT substrates) in MCF7AC1 cells; experiment: Immunoblot of AKT signaling and PARP cleavage, MCF7AC1; assay type: cell-based, human; conditions: for Effect on insulin-stimulated AKT^Ser473 and AKT^Thr308 phosphorylations: 100 nM insulin 1 h, 0.1 µM
Protocol: The ENDX hydrochloride utilized in this study was synthesized in collaboration between Mayo Clinic and National Institute of Health (NIH). Estrogen deprived MCF7AC1 were treated with vehicle control or ENDX (National Cancer Institute) for 24 h. […] For the insulin (Sigma-Aldrich, #I0516) experiments, MCF7AC1 and T47D cells were maintained in serum-free medium for 24 h prior to pretreatment with vehicle control or drugs for 2 h followed by treatment with 100 nM insulin for 1 h.
(§1) Protein lysates were prepared using the RIPA lysis buffer system (ChemCruz #sc-24948) and quantified using the DC^TM Protein Assay reagents (Bio-Rad #5000112). Equal amounts of protein lysates were separated on 10% Criterion gels (Bio-Rad #3450112), transferred to PVDF membranes (Bio-Rad #1620177), blocked in TBST-5% milk and probed with primary antibodies listed in Supplementary Table 5, at the indicated dilutions. Membranes were incubated with HRP-conjugated anti-rabbit (CST #7074) or anti-mouse (CST #7076) secondary antibodies and visualized using chemiluminescent West Pico (Thermo Scientific #34580) or West Femto (Thermo Scientific #34096) reagents and a Li-Cor Odyssey® XF imager. Protein lysates from the MCF7AC1 xenograft model were obtained from a previous study. Quantitation of the protein bands signal intensity was performed using the NIH ImageJ image analysis software (https://imagej.nih.gov/ij///index.html). For the quantitation of the phospho protein levels, we first normalized total protein levels to β-actin loading control and used these values to normalize the phospho protein levels and compared change in protein expression levels relative to vehicle control normalized to 1.0. For the quantitation of total protein levels, we normalized the total protein levels to β-actin and compared change in expression levels relative to vehicle control normalized to 1.0. All blots were processed in parallel and derived from the same experiments. Unprocessed immunoblot images are provided in Supplementary Figs. 9–13.

PKCβ1 in MCF7AC1 cells [2] = experiment: Immunoblot of PKCβ1 and pPKCβ1^Ser661, MCF7AC1; assay type: cell-based, human; conditions: serum starved; for Effect on PKCβ1 total protein in insulin treated cells: 100 nM insulin 1 h, ENDX 0.01, 0.1, 5 µM, TAM 0.1 µM, ICI 0.1 µM
Protocol: (§2) The ENDX hydrochloride utilized in this study was synthesized in collaboration between Mayo Clinic and National Institute of Health (NIH). Estrogen deprived MCF7AC1 were treated with vehicle control or ENDX (National Cancer Institute) for 24 h. For the phorbol 12-myristate 13-acetate (PMA) (LC Laboratories, #P-1680) experiments, MCF7AC1 cells were maintained in serum-free medium for 24 h prior to pretreatment with vehicle or ENDX for 2 h followed by treatment with 20 or 200 nM PMA for 20 min. For the insulin (Sigma-Aldrich, #I0516) experiments, MCF7AC1 and T47D cells were maintained in serum-free medium for 24 h prior to pretreatment with vehicle control or drugs for 2 h followed by treatment with 100 nM insulin for 1 h.
as §1

[3] = tested on: AKT phosphorylation in T47D cells; experiment: Immunoblot of AKT phosphorylation, serum starved T47D; assay type: cell-based, human; conditions: 0.1 µM
Protocol: as §2
as §1, with “Protein lysates from the MCF7AC1 xenograft model were obtained from a previous study.” left out, “All blots were processed in parallel and derived from the same experiments. Unprocessed immunoblot images are provided in Supplementary Figs. 9–13.” left out

[4] = tested on: ERα+/HER2- metastatic breast cancer; conditions: cited from earlier work
MCF7AC1 cells [5] = experiment: IncuCyte Annexin V apoptosis assay, MCF7AC1; assay type: cell-based, human; conditions: for Effect on apoptosis: CSS medium, 48 h, ENDX 5 µM, TAM 0.1 µM, ICI 0.1 µM
Protocol: (§3) MCF7AC1 and T47D-LTED cells were plated at a density of 2000 cells per well in CSS medium for 24 h. Cells were then co-treated for 48 h with vehicle or drug, IncuCyte Annexin V green reagent (#4642, 1:300), an early-stage apoptosis marker, and IncuCyte NucLight rapid red reagent (#4717, 1:500), a dye that stains all cell nuclei red, in CSS medium. MCF7AC1^caAKT cells were plated at a cell density of 2000 cells per well in CSS medium in the absence or presence of cumate for 48 h and then co-treated with vehicle or drug, Annexin V green and NucLight rapid red reagents in the absence or presence of cumate for an additional 48 h in CSS medium.

[6] = ERα+ breast cancer patients receiving 20 mg/day TAM monotherapy; cited from earlier work
PKCβ1 in MCF7AC1 cells [7] = experiment: Immunoblot of PKCβ1 and pPKCβ1^Ser661, MCF7AC1; assay type: cell-based, human; conditions: serum starved, 1 µM ENZA 2 h, 200 nM PMA 30 min
MCF7AC1 cells [8] = experiment: Crystal violet cell viability / proliferation assay, MCF7AC1; assay type: cell-based, human; conditions: estrogen deprived (CSS), six days
Protocol: Fig. 1 Z-endoxifen (ENDX) effects on cell viability and apoptosis in estrogen deprived ERα+ /HER2- MCF7AC1 cells. a Cells grown in CSS medium were treated with vehicle control or the indicated ENDX concentrations for […]. Cell viability was assessed by the crystal violet assay. b Cells were co-treated with vehicle control or the indicated ENDX concentrations, IncuCyte Annexin V green and NucLight red reagents in CSS medium for 48 h. […] Data represents the mean of six wells per treatment performed as biological duplicates ± s.d. **p ≤ 0.01; ***p ≤ 0.001; ****p ≤ 0.0001 by one-way ANOVA.
(§4) Cells were plated at a density of 2000 cells per well. Cell viability of (i) vehicle or drug treated MCF7AC1 and T47D-LTED cells in CSS medium, (ii) siNT or siPKCβ-transfected MCF7AC1 cells in CSS medium and (iii) T47D cells in FBS versus CSS medium were analyzed by crystal violet staining assay after 6 days of treatment or siRNA transfection as previously described. Cell viability was calculated as the average absorbance of the drug treated cells divided by the average absorbance of the vehicle treated cells × 100.

T47D-LTED cells [9] = experiment: Crystal violet cell viability assay, T47D-LTED; assay type: cell-based, human; conditions: CSS medium, six days
Protocol: as §4
(§5) Supplementary Figure 6. […] Cell viability is assessed by the crystal violet assay. b, MCF7AC1 cells were co-treated with vehicle control or 0.01, 0.1 and 5 µM MK-2206 and IncuCyte Annexin V green and NucLight rapid red reagents in CSS medi um for 48 hours. […]
Cells were plated at a density of 2000 cells per well. c, MCF7AC1 cells were treated with vehicle control or 0.01, 0.1 and 5 µM MK-2206 in CSS medium for 24 hours. […] Cell viability is assessed by the crystal violet assay. f, Parental T47D and T47D-LTED cells were processed for protein lysates. […] Cell viability is assessed by the crystal violet assay. h, T47D-LTED cells were co-treated with vehicle control or 0.01, 0.1 and 5 µM MK -2206 and IncuCyte Annexin V green and NucLight rapid red reagents in CSS medium for 48 hours. […] Cell viability is assessed by the crystal violet assay. […]

[10] = tested on: AKT^Ser473 phosphorylation in T47D-LTED cells; experiment: Immunoblot of pAKT^Ser473, T47D-LTED; assay type: cell-based, human; conditions: CSS medium, 24 h; 1 and 5 µM, but not 0.1 µM
Protocol: as §1, with “All blots were processed in parallel and derived from the same experiments. Unprocessed immunoblot images are provided in Supplementary Figs. 9–13.” left out

T47D-LTED cells [11] = experiment: IncuCyte Annexin V apoptosis assay, T47D-LTED; assay type: cell-based, human; conditions: CSS medium; 1 and 5 µM, but not 0.1 µM
Protocol: as §3, §5
Cells were plated at a density of 2000 cells per well. c, MCF7AC1 cells were treated with vehicle control or 0.01, 0.1 and 5 µM MK-2206 in CSS medium for 24 hours. […] Cell viability is assessed by the crystal violet assay. f, Parental T47D and T47D-LTED cells were processed for protein lysates. […] Percentage of cells undergoing apoptosis was calculated as mentioned in b. i, T47D-LTED cells were treated with vehicle control or 0.01, 0.1 and 5 µM MK -2206 in CSS medium for 24 hours . […]

Insulin: known activator of AKT^Ser473 phosphorylation (Sigma-Aldrich)
Effect on AKT^Ser473 phosphorylation ([1]; serum starved, 100 nM, 1 h): robustly stimulated AKT^Ser473 phosphorylation

CC/C(=C(\c1ccccc1)c1ccc(OCCN(C)C)cc1)c1ccccc1 [TAM, tamoxifen, reference compound]
Effect on PKCβ1 total protein in insulin treated cells (PKCβ1 in MCF7AC1 cells [2]): failed to diminish PKCβ1 total protein expression
Effect on insulin-stimulated AKT^Ser473 phosphorylation [3]: failing to block insulin-stimulated AKT^Ser473 phosphorylation
PFS in CDK4/6 inhibitor naïve patients ([4]; CDK4/6i naïve): 2.4 m
Progression free survival (PFS) overall ([4]; women with ERα+/HER2- metastatic breast cancer progressed on endocrine therapy): 1.8 m
Effect on apoptosis (MCF7AC1 cells [5]): failed to induce apoptosis
Effect on insulin-stimulated AKT^Ser473 and AKT^Thr308 phosphorylations ([1]; serum starved): failed to inhibit insulin-stimulated AKT^Ser473 and AKT^Thr308 phosphorylations

CC/C(=C(\c1ccc(O)cc1)c1ccc(OCCN(C)C)cc1)c1ccccc1 [4-HT]
Clinically attainable serum concentration [6]: < 5 nM

Cn1cc(C2=C(c3cn(C4CCN(Cc5ccccn5)CC4)c4ccccc34)C(=O)NC2=O)c2ccccc21 [enzastaurin]
Effect on PKCβ1 expression (PKCβ1 in MCF7AC1 cells [7]): neither impacted the expression of PKCβ1
Effect on PMA-stimulated PKCβ1^Ser661 phosphorylation (PKCβ1 in MCF7AC1 cells [7]): reduced PKCβ1^Ser661 phosphorylation

CCCCCCCCCCCCCC(=O)O[C@@H]1[C@@H](C)[C@@]2(O)[C@@H](C=C(CO)C[C@]3(O)C(=O)C(C)=C[C@@H]23)[C@@H]2C(C)(C)[C@]12OC(C)=O [PMA, phorbol 12-myristate 13-acetate, reference compound]
Effect of PKC agonist on PKCβ1^Ser661 and AKT^Ser473 phosphorylation (PKCβ1 in MCF7AC1 cells [2]; 20 and 200 nM, 20 min): stimulated PKCβ1^Ser661 auto-phosphorylation and AKT^Ser473 phosphorylation

C[C@]12CC[C@@H]3c4ccc(O)cc4C[C@@H](CCCCCCCCC[S+]([O-])CCCC(F)(F)C(F)(F)F)[C@H]3[C@@H]1CC[C@@H]2O (stereo partly drawn) [ICI, ICI-182780, reference compound]
Effect on PKCβ1 total protein in insulin treated cells (PKCβ1 in MCF7AC1 cells [2]): failed to diminish PKCβ1 total protein expression
Effect on insulin-stimulated AKT^Ser473 phosphorylation [3]: failing to block insulin-stimulated AKT^Ser473 phosphorylation
Effect on apoptosis (MCF7AC1 cells [5]): failed to induce apoptosis
Effect on insulin-stimulated AKT^Ser473 and AKT^Thr308 phosphorylations ([1]; serum starved): failed to inhibit insulin-stimulated AKT^Ser473 and AKT^Thr308 phosphorylations

NC1(c2ccc(-c3nc4ccn5c(=O)[nH]nc5c4cc3-c3ccccc3)cc2)CCC1 [MK-2206, reference compound]
Concentrations at which growth was inhibited (MCF7AC1 cells [8]): ≥ 0.1 µM
Concentration from which growth was significantly inhibited (T47D-LTED cells [9]): ≥ 0.1 µM
Concentration at which apoptosis (annexin V binding and PARP1 cleavage) was induced (MCF7AC1 cells [5]; estrogen deprived (CSS)): 5 µM
Concentrations reducing AKT^Ser473 phosphorylation [10]: ≥ 1 µM
Concentrations at which AKT^Ser473 phosphorylation was reduced ([1]; estrogen deprived (CSS), 24 h): ≥ 1 µM
Concentrations increasing apoptosis (annexin V staining, PARP cleavage) (T47D-LTED cells [11]): ≥ 1 µM
